In ChEMBL document CHEMBL3734748, “Design, synthesis, and biological activity of N-alkylated analogue of NCL1, a selective inhibitor of lysine-specific demethylase 1” (Medchemcomm, 2015):
Calls of active or inactive are those of the source. The calls are words filed in the database; no cut-off is given here.

Experiments:
SH-SY5Y = assay: Antiproliferative activity against human SH-SY5Y cells assessed as growth inhibition after 48 h by MTT assay; format: functional
HeLa = assay: Antiproliferative activity against human HeLa cells assessed as growth inhibition after 48 h by MTT assay; format: functional
[1] = biological target: T1, Lysine-specific histone demethylase 1A (Homo sapiens, UniProt O60341); assay: Inhibition of LSD1 in human SH-SY5Y cells assessed as induction of H3K4me2 accumulation at 10 uM after 24 hrs by Western blot method; format: cell-based
[2] = biological target: T1, Lysine-specific histone demethylase 1A; assay: Time-dependent inhibition of full length human fusion His6 tagged LSD1 expressed in Escherichia coli BL21(DE3) cells using H3K4me2 peptide substrate preincubated for 5 mins by peroxidase-coupled method
[3] = biological target: T1, Lysine-specific histone demethylase 1A; assay: Time-dependent inhibition of full length human fusion His6 tagged LSD1 expressed in Escherichia coli BL21(DE3) cells assessed as enzyme inactivation using H3K4me2 peptide substrate preincubated for 5 mins by peroxidase-coupled method
[4] = biological target: T2, Amine oxidase [flavin-containing] B (Homo sapiens, UniProt P27338); assay: Inhibition of MAOB (unknown origin)
T2 sequence (P27338 whole entry): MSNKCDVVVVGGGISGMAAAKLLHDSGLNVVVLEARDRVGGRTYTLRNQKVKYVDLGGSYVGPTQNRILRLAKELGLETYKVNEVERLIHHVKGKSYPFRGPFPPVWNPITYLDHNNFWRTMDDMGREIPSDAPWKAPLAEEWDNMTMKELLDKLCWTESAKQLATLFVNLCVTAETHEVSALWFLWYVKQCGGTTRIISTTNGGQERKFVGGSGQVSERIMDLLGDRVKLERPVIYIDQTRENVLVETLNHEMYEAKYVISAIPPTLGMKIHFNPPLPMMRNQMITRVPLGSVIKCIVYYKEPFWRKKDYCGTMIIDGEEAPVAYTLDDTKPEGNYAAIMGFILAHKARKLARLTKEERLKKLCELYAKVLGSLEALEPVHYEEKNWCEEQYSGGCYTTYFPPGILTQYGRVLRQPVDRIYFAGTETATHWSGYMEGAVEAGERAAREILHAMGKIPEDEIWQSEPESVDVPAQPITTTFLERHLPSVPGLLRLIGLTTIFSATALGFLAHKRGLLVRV

[5] = biological target: T1, Lysine-specific histone demethylase 1A; assay: Inhibition of LSD1 in human SH-SY5Y cells assessed as induction of H3K4me2 accumulation at 30 uM after 24 hrs by Western blot method; format: cell-based
[6] = biological target: T1, Lysine-specific histone demethylase 1A; assay: Potency index, ratio of IC50 for NCL1 to IC50 for test compound against full length human fusion His6 tagged LSD1 expressed in Escherichia coli BL21(DE3) cells
[7] = biological target: T3, Amine oxidase [flavin-containing] A (Homo sapiens, UniProt P21397); assay: Inhibition of MAOA (unknown origin)
T3 sequence (P21397 whole entry): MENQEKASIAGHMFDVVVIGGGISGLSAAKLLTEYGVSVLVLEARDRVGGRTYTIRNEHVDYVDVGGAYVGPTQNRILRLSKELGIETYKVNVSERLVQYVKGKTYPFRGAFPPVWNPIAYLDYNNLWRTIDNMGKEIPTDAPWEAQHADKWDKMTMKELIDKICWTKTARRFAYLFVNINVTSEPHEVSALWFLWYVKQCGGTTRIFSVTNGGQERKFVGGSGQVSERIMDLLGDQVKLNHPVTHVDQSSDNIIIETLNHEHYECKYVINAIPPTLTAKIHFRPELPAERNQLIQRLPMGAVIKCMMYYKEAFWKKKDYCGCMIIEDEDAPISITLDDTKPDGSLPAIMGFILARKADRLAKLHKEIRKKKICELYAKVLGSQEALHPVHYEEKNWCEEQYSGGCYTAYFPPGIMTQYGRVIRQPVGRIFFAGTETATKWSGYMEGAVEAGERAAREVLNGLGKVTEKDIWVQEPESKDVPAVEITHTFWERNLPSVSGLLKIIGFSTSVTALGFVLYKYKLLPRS

[8] = biological target: T1, Lysine-specific histone demethylase 1A; assay: Inhibition of full length human fusion His6 tagged LSD1 expressed in Escherichia coli BL21(DE3) cells assessed as FAD-NCL1 adduct formation at 100 uM incubated for 22 hrs by MALDI-TOF mass spectrometry
[9] = biological target: T1, Lysine-specific histone demethylase 1A; assay: Inhibition of full length human fusion His6 tagged LSD1 expressed in Escherichia coli BL21(DE3) cells using H3K4me2 peptide substrate preincubated for 5 mins by peroxidase-coupled method

| SMILES | GI50 (SH-SY5Y) | GI50 (HeLa) | inhibition [1] | Ki [2] | inhibition ([2]; TDE = time-dependent effect) | Kinact [3] | IC50 [4] | inhibition [5] | Ratio IC50 [6] | IC50 [7] | inhibition [8] | IC50 [9] |
| --- | --- | --- | --- | --- | --- | --- | --- | --- | --- | --- | --- | --- |
| NC1CC1c1cccc(OCC[C@H](NC(=O)c2ccccc2)C(=O)NCc2ccccc2)c1 (some centres not stated) | 27 µM | 13 µM | – | – | – | – | – | – | – | – | – | – |
| CN1CCN(C(=O)CNC2CC2c2cccc(OCC[C@H](NC(=O)c3ccccc3)C(=O)NCc3ccccc3)c2)CC1 (some centres not stated) | 42 µM | 109 µM | Active | 2.4 µM | tde | 0.0035 s⁻¹ | > 100 µM | Active | 6 | > 100 µM | Active | 0.38 µM |
| CN1CCN(C(=O)CNC2CC2c2cccc(O)c2)CC1 (configuration not stated) | > 240 µM | > 240 µM | – | – | – | – | – | – | – | – | – | 2.4 µM |
